Test results: US9855230B2 (ViiV Healthcare UK (No. 5) Limited, priority 2014, dated 2018)
pEC50: −log10 of the molar value. Where two headings read alike, the source gives them in different places.

Columns and labels:
[1] = system: recombinant NL4-3 virus (nef section replaced with Renilla luciferase gene) in MT-2 cells; experiment: whole plant or invertebrate; format: cell-based, HIV; settings: NL43, luciferase activity in MT-2 cells infected 4-5 days with recombinant NL4-3 virus
Description: A recombinant NL4-3 proviral clone, in which a section of the nef gene was replaced with the Renilla luciferase gene, was used to make the reference virus used in these studies.
Supernatent was harvested after 2-3 days and the amount of virus present was titered in MT-2 cells using luciferase enzyme activity as a marker by measuring luciferase enzyme activity. Luciferase was quantitated using the EnduRen Live Cell Substrate from Promega (Madison, Wis.). Antiviral activities of compounds toward the recombinant virus were quantified by measuring luciferase activity in MT-2 cells infected for 4-5 days with the recombinant virus in the presence of serial dilutions of the compound.

[2] = Compound cytotoxicity (CC50), XTT-based colorimetric assay; format: cell-based; settings: human; uninfected MT2 cells, day 4, XTT assay
Procedure: Compound cytotoxicity and the corresponding CC50 values were determined using the same protocol as described in the antiviral assay except that uninfected cells were used. Cytotoxicity was assessed on day 4 in uninfected MT2 cells by using a XTT (2,3-bis[2-Methoxy-4-nitro-5-sulfophenyl]-2H-tetrazolium-5-carboxyanilide inner salt)-based colorimetric assay (Sigma-Aldrich, St Louis, Mo.).

SMILES | pEC50 ([1]; read-out: Activity) | pEC50 ([1]; read-out: EC50) | CC50 at 4 day [2] [nM]
COC(=O)Nc1ccc(-n2ccnc2[C@H](Cc2ccccc2)NC(=O)NS(=O)(=O)Cc2cccc(Cl)c2)cc1 [Example 48, (S)-methyl (4-(2-(1-(3-((3-chlorobenzyl)sulfonyl)ureido)-2-phenylethyl)-1H-imidazol-1-yl)phenyl)carbamate] | > 7.00 | 7.15 | > 100000
COC(=O)Nc1ccc(-n2ccnc2[C@H](Cc2ccccc2)NC(=O)NS(=O)(=O)c2c(F)cccc2F)cc1 [Example 50, (S)-methyl (4-(2-(1-(3-((2,6-difluorophenyl)sulfonyl)ureido)-2-phenylethyl)-1H-imidazol-1-yl)phenyl)carbamate] | 6.00 to 7.00 |  | > 100000
COC(=O)Nc1ccc(-n2ccnc2[C@H](Cc2ccccc2)NC(=O)NS(=O)(=O)c2cccc(Cl)c2Cl)cc1 [Example 51, (S)-methyl (4-(2-(1-(3-((2,3-dichlorophenyl)sulfonyl)ureido)-2-phenylethyl)-1H-imidazol-1-yl)phenyl)carbamate] | 6.00 to 7.00 | 6.80 | > 100000
COC(=O)Nc1ccc(-n2ccnc2[C@H](Cc2ccccc2)NC(=O)NS(=O)(=O)C(C)C)cc1 [Example 52, (S)-methyl (4-(2-(1-(3-(isopropylsulfonyl)ureido)-2-phenylethyl)-1H-imidazol-1-yl)phenyl)carbamate] | 6.00 to 7.00 |  | > 100000
COC(=O)Nc1ccc(-n2ccnc2[C@H](Cc2ccccc2)NC(=O)NS(=O)(=O)C2CC2)cc1 [Example 53, (S)-methyl (4-(2-(1-(3-(cyclopropylsulfonyl)ureido)-2-phenylethyl)-1H-imidazol-1-yl)phenyl)carbamate] | 6.00 to 7.00 |  | > 100000
COC(=O)Nc1ccc(-n2ccnc2[C@H](Cc2ccccc2)NC(=O)NS(=O)(=O)c2cccc(Cl)c2)cc1 [Example 54, (S)-methyl (4-(2-(1-(3-((3-chlorophenyl)sulfonyl)ureido)-2-phenylethyl)-1H-imidazol-1-yl)phenyl)carbamate] | 6.00 to 7.00 | 6.82 | > 100000
COC(=O)Nc1ccc(-n2ccnc2[C@H](Cc2ccccc2)NC(=O)NS(=O)(=O)c2cc(Cl)sc2Cl)cc1 [Example 55, (S)-methyl (4-(2-(1-(3-((2,5-dichlorothiophen-3-yl)sulfonyl)ureido)-2-phenylethyl)-1H-imidazol-1-yl)phenyl)carbamate] | > 7.00 |  | > 100000
COc1ccc(-n2ccnc2[C@H](Cc2ccccc2)NC(=O)NS(=O)(=O)c2cccc(Cl)c2Cl)cc1 [Example 56, (S)-2,3-dichloro-N-((1-(1-(4-methoxyphenyl)-1H-imidazol-2-yl)-2-phenylethyl)carbamoyl)benzenesulfonamide] | > 7.00 |  | > 100000
CCOc1ccc(-n2ccnc2[C@H](Cc2ccccc2)NC(=O)NS(=O)(=O)c2cccc(Cl)c2Cl)cc1 [Example 57, (S)-2,3-dichloro-N-((1-(1-(4-ethoxyphenyl)-1H-imidazol-2-yl)-2-phenylethyl)carbamoyl)benzenesulfonamide] | > 7.00 | 7.52 | > 100000
COc1ccc(-n2ccnc2[C@H](Cc2ccccc2)NC(=O)NS(=O)(=O)c2ccccc2F)cc1 [Example 58, (S)-2-fluoro-N-((1-(1-(4-methoxyphenyl)-1H-imidazol-2-yl)-2-phenylethyl)carbamoyl)benzenesulfonamide] | > 7.00 |  | > 33000
Cc1ccccc1S(=O)(=O)NC(=O)N[C@@H](Cc1ccccc1)c1nccn1-c1ccc(-c2ccoc2)cc1 [Example 59, (S)-N-((1-(1-(4-(furan-3-yl)phenyl)-1H-imidazol-2-yl)-2-phenylethyl)carbamoyl)-2-methylbenzenesulfonamide] | > 7.00 |  | > 33000
Cc1ccccc1S(=O)(=O)NC(=O)N[C@@H](Cc1ccccc1)c1nccn1-c1ccc(-c2ccsc2)cc1 [Example 60, (S)-2-methyl-N-((2-phenyl-1-(1-(4-(thiophen-3-yl)phenyl)-1H-imidazol-2-yl)ethyl)carbamoyl)benzenesulfonamide] | > 7.00 | 7.52 | > 100000
Cc1ccccc1S(=O)(=O)NC(=O)N[C@@H](Cc1ccccc1)c1nccn1-c1ccc(-c2cnn(C)c2)cc1 [Example 61, (S)-2-methyl-N-((1-(1-(4-(1-methyl-1H-pyrazol-4-yl)phenyl)-1H-imidazol-2-yl)-2-phenylethyl)carbamoyl)benzenesulfonamide] | > 7.00 |  | > 33000
Cc1ccccc1S(=O)(=O)NC(=O)N[C@@H](Cc1ccccc1)c1nccn1-c1ccc(-c2ccoc2C)cc1 [Example 62, (S)-2-methyl-N-((1-(1-(4-(2-methylfuran-3-yl)phenyl)-1H-imidazol-2-yl)-2-phenylethyl)carbamoyl)benzenesulfonamide] | > 7.00 |  | > 100000
COc1ccc(-c2ccc(-n3ccnc3[C@H](Cc3ccccc3)NC(=O)NS(=O)(=O)c3ccccc3C)cc2)cn1 [Example 63, (S)-N-((1-(1-(4-(6-methoxypyridin-3-yl)phenyl)-1H-imidazol-2-yl)-2-phenylethyl)carbamoyl)-2-methylbenzenesulfonamide] | 6.00 to 7.00 | 7.00 | > 100000
O=C(N[C@@H](Cc1ccccc1)c1nccn1-c1ccc(-c2ccoc2)cc1)NS(=O)(=O)c1ccccc1F [Example 64, (S)-2-fluoro-N-((1-(1-(4-(furan-3-yl)phenyl)-1H-imidazol-2-yl)-2-phenylethyl)carbamoyl)benzenesulfonamide] | > 7.00 |  | > 100000
Cc1ccccc1S(=O)(=O)NC(=O)N[C@@H](Cc1ccccc1)c1nccn1-c1cccc(-c2ccoc2)c1 [Example 65, (S)-N-((1-(1-(3-(furan-3-yl)phenyl)-1H-imidazol-2-yl)-2-phenylethyl)carbamoyl)-2-methylbenzenesulfonamide] | 6.00 to 7.00 |  | > 100000
Cc1ccccc1S(=O)(=O)NC(=O)N[C@@H](Cc1ccccc1)c1nccn1-c1ccc2c(c1)ncn2C [Example 66, (S)-2-methyl-N-((1-(1-(1-methyl-1H-benzo[d]imidazol-5-yl)-1H-imidazol-2-yl)-2-phenylethyl)carbamoyl)benzenesulfonamide] | 6.00 to 7.00 | 6.47 | > 100000
Cc1ccc2cc(-n3ccnc3[C@H](Cc3ccccc3)NC(=O)NS(=O)(=O)c3ccccc3C)ccc2n1 [Example 67, (S)-2-methyl-N-((1-(1-(2-methylquinolin-6-yl)-1H-imidazol-2-yl)-2-phenylethyl)carbamoyl)benzenesulfonamide] | > 7.00 |  | > 100000
Cc1ccccc1S(=O)(=O)NC(=O)N[C@@H](Cc1ccccc1)c1nccn1-c1cccc(N2CCCC2)c1 [Example 68, (S)-2-methyl-N-((2-phenyl-1-(1-(3-(pyrrolidin-1-yl)phenyl)-1H-imidazol-2-yl)ethyl)carbamoyl)benzenesulfonamide] | 6.00 to 7.00 |  | > 100000
Cc1ccccc1S(=O)(=O)NC(=O)N[C@@H](Cc1ccccc1)c1nccn1-c1ccc2ccccc2c1 [Example 69, (S)-2-methyl-N-((1-(1-(naphthalen-2-yl)-1H-imidazol-2-yl)-2-phenylethyl)carbamoyl)benzenesulfonamide] | > 7.00 | 7.40 | > 100000
Cc1ccccc1S(=O)(=O)NC(=O)N[C@@H](Cc1ccccc1)c1nccn1-c1ccc2scnc2c1 [Example 70, (S)-N-((1-(1-(benzo[d]thiazol-5-yl)-1H-imidazol-2-yl)-2-phenylethyl)carbamoyl)-2-methylbenzenesulfonamide] | > 7.00 |  | > 100000
O=C(N[C@@H](Cc1ccccc1)c1nccn1-c1ccc2scnc2c1)NS(=O)(=O)c1ccccc1F [Example 71, (S)-N-((1-(1-(benzo[d]thiazol-5-yl)-1H-imidazol-2-yl)-2-phenylethyl)carbamoyl)-2-fluorobenzenesulfonamide] | 6.00 to 7.00 |  | > 100000
Cc1nc2cc(-n3ccnc3[C@H](Cc3ccccc3)NC(=O)NS(=O)(=O)c3ccccc3C)ccc2s1 [Example 72, (S)-2-methyl-N-((1-(1-(2-methylbenzo[d]thiazol-5-yl)-1H-imidazol-2-yl)-2-phenylethyl)carbamoyl)benzenesulfonamide] | > 7.00 | 7.30 | > 100000
Cc1nc2cc(-n3ccnc3[C@H](Cc3ccccc3)NC(=O)NS(=O)(=O)c3ccccc3F)ccc2s1 [Example 73, (S)-2-fluoro-N-((1-(1-(2-methylbenzo[d]thiazol-5-yl)-1H-imidazol-2-yl)-2-phenylethyl)carbamoyl)benzenesulfonamide] | 6.00 to 7.00 |  | > 100000
Cc1ccccc1S(=O)(=O)NC(=O)N[C@@H](Cc1ccccc1)c1nccn1-c1ccc2sccc2c1 [Example 74, (S)-N-((1-(1-(benzo[b]thiophen-5-yl)-1H-imidazol-2-yl)-2-phenylethyl)carbamoyl)-2-methylbenzenesulfonamide] | > 7.00 |  | 39000
O=C(N[C@@H](Cc1ccccc1)c1nccn1-c1ccc2c(c1)CCO2)NS(=O)(=O)c1ccccc1F [Example 75, (S)-N-((1-(1-(2,3-dihydrobenzofuran-5-yl)-1H-imidazol-2-yl)-2-phenylethyl)carbamoyl)-2-fluorobenzenesulfonamide] | > 7.00 | 7.70 | > 100000
